Measured values reported in ChEMBL document CHEMBL2311262, “Structure activity relationship studies of tricyclic bispyran sulfone γ-secretase inhibitors” (Bioorg Med Chem Lett, 2013).

Experiments:
Gamma-secretase [1] = test: Inhibition of gamma secretase-mediated amyloid beta40 production in HEK293 cell membranes transfected with human APPSOW and APPLON mutant after 5 hrs by sandwich immunoassay; assay type: cell-based
[2] = Ratio of drug level in brain to plasma in rat at 6 hrs; assay type: ADME; conditions: read-out: BPR
Gamma-secretase [3] = test: Inhibition of gamma secretase-mediated amyloid beta40 production in HEK293 cells transfected with human APPSOW and APPLON after 5 hrs by sandwich immunoassay; assay type: cell-based
Gamma-secretase [4] = test: Inhibition of gamma secretase-mediated amyloid beta42 production in HEK293 cells transfected with human APPSOW and APPLON after 5 hrs by sandwich immunoassay; assay type: cell-based
[5] = Tmax in monkey at 10 mg/kg, po; assay type: ADME, organism-based, Macaca mulatta; design: dose 10 mg/kg, route oral; conditions: rhesus monkey, in vivo
hERG (KCNH2) = hERG (KCNH2) (Homo sapiens, UniProt Q12809); test: Inhibition of human ERG at 10 uM by voltage clamp assay
Chain of hERG (KCNH2) (Q12809 whole entry): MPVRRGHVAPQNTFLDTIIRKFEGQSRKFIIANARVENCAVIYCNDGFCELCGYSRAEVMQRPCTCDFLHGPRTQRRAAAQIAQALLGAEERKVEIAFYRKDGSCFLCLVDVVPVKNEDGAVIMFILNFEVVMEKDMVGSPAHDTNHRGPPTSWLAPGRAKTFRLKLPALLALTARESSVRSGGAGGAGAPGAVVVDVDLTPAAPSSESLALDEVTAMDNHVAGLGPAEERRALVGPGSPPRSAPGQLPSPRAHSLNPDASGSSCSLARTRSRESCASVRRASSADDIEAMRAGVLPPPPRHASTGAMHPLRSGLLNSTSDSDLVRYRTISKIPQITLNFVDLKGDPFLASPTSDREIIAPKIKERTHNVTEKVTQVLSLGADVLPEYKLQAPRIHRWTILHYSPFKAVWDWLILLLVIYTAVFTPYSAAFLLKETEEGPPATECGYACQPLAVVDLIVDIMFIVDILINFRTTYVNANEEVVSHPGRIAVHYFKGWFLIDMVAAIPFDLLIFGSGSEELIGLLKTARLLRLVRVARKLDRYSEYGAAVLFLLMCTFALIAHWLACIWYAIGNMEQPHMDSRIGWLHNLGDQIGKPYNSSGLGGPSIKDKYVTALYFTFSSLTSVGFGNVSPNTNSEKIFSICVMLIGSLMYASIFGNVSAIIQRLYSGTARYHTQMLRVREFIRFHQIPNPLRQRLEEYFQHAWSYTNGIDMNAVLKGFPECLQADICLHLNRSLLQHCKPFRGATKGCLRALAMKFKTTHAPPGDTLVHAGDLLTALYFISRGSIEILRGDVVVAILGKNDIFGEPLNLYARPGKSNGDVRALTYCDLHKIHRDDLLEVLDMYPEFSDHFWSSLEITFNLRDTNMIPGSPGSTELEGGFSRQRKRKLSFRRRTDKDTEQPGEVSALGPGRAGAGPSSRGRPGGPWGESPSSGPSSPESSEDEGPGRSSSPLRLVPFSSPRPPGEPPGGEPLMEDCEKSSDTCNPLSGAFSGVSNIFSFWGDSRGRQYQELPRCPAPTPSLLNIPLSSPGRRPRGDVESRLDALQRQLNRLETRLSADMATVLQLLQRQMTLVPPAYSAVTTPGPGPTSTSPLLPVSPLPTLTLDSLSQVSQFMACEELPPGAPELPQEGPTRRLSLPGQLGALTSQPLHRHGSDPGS

[6] = Oral bioavailability in monkey at 10 mg/kg; assay type: ADME, organism-based, Macaca mulatta; conditions: rhesus monkey, in vivo
[7] = AUC (0 to infinity) in dog at 10 mg/kg, po; assay type: ADME, organism-based, Canis lupus familiaris; design: time infinity, dose 10 mg/kg, route oral; conditions: plasma
[8] = Half life in rat at 10 mg/kg, po; assay type: ADME, organism-based; design: dose 10 mg/kg, route oral; conditions: in vivo
[9] = Oral bioavailability in dog at 10 mg/kg; assay type: ADME, organism-based, Canis lupus familiaris; conditions: in vivo
[10] = Volume of distribution at steady state in monkey at 2.5 mg/kg, iv; assay type: ADME, organism-based, Macaca mulatta; design: dose 2.5 mg/kg, route intravenous; conditions: rhesus monkey, in vivo, read-out: Vdss
[11] = Half life in monkey at 10 mg/kg, po; assay type: ADME, organism-based, Macaca mulatta; design: dose 10 mg/kg, route oral; conditions: rhesus monkey, in vivo
[12] = Cmax in rat at 10 mg/kg, po; assay type: ADME, organism-based; design: dose 10 mg/kg, route oral; conditions: in vivo
[13] = Volume of distribution at steady state in dog at 2.5 mg/kg, iv; assay type: ADME, organism-based, Canis lupus familiaris; design: dose 2.5 mg/kg, route intravenous; conditions: in vivo, read-out: Vdss
[14] = Clearance in rat at 5 mg/kg, iv; assay type: ADME, organism-based; design: dose 5 mg/kg, route intravenous; conditions: in vivo
[15] = Inhibition of CYP450 (unknown origin); assay type: ADME, Homo sapiens
[16] = Cmax in monkey at 10 mg/kg, po; assay type: ADME, organism-based, Macaca mulatta; design: dose 10 mg/kg, route oral; conditions: rhesus monkey, in vivo
[17] = Oral bioavailability in rat at 10 mg/kg; assay type: ADME, organism-based; conditions: in vivo
[18] = Clearance in dog at 2.5 mg/kg, iv; assay type: ADME, organism-based, Canis lupus familiaris; design: dose 2.5 mg/kg, route intravenous; conditions: in vivo
Rattus norvegicus [19] = test: Inhibition of gamma secretase in po dosed CD rat assessed as lowering of plasma amyloid beta40 production measured at 3 hrs; assay type: functional
Rattus norvegicus [20] = test: Inhibition of gamma secretase in po dosed CD rat assessed as lowering of CSF amyloid beta40 production measured at 3 hrs; assay type: functional
[21] = Cmax in dog at 10 mg/kg, po; assay type: ADME, organism-based, Canis lupus familiaris; design: dose 10 mg/kg, route oral; conditions: in vivo
Gamma-secretase [22] = test: Inhibition of gamma secretase-mediated notch cleavage in HEK293 cells expressing human notch protein with truncated extracellular EGF repeat domain by sandwich immunoassay; assay type: cell-based
[23] = Tmax in rat at 10 mg/kg, po; assay type: ADME, organism-based; design: dose 10 mg/kg, route oral; conditions: in vivo
[24] = AUC (0 to infinity) in monkey at 10 mg/kg, po; assay type: ADME, organism-based, Macaca mulatta; design: time infinity, dose 10 mg/kg, route oral; conditions: rhesus monkey, plasma
Rattus norvegicus [25] = test: Inhibition of gamma secretase in po dosed CD rat assessed as lowering of cortex amyloid beta40 production measured at 3 hrs; assay type: functional
[26] = Half life in dog at 10 mg/kg, po; assay type: ADME, organism-based, Canis lupus familiaris; design: dose 10 mg/kg, route oral; conditions: in vivo
[27] = Clearance in monkey at 2.5 mg/kg, iv; assay type: ADME, organism-based, Macaca mulatta; design: dose 2.5 mg/kg, route intravenous; conditions: rhesus monkey, in vivo
Mus musculus [28] = test: Inhibition of gamma secretase in po dosed B6C3F1 mouse assessed as lowering of plasma amyloid beta40 production measured at 3 hrs; assay type: functional
[29] = AUC (0 to infinity) in rat at 10 mg/kg, po; assay type: ADME, organism-based; design: time infinity, dose 10 mg/kg, route oral; conditions: plasma
[30] = Tmax in dog at 10 mg/kg, po; assay type: ADME, organism-based, Canis lupus familiaris; design: dose 10 mg/kg, route oral; conditions: in vivo
[31] = Volume of distribution at steady state in rat at 5 mg/kg, iv; assay type: ADME, organism-based; design: dose 5 mg/kg, route intravenous; conditions: in vivo, read-out: Vdss
Mus musculus [32] = test: Inhibition of gamma secretase in po dosed B6C3F1 mouse assessed as lowering of cortex amyloid beta40 production measured at 3 hrs; assay type: functional
Homo sapiens = species on record: Homo sapiens; test: Selectivity ratio of inhibition of PS2 (unknown origin) to inhibition of PS1 (unknown origin)

## CS(=O)(=O)CC[C@@H]1OCC[C@@]2(S(=O)(=O)c3cc(F)cc(F)c3)c3c(F)ccc(F)c3OC[C@@H]12
Gamma-secretase [1]
  IC50: 250 nM

## O=S(=O)(CCO)CC[C@@H]1OCC[C@@]2(S(=O)(=O)c3ccc(Cl)cc3)c3c(F)ccc(F)c3OC[C@@H]12
[2]
  Kp at 6 h: 0.1
Gamma-secretase [3]
  IC50: 1.2 nM
Gamma-secretase [4]
  IC50: 0.9 nM
Gamma-secretase [1]
  IC50: 1 nM

## CC(C)S(=O)(=O)CC[C@@H]1OCC[C@@]2(S(=O)(=O)c3ccc(Cl)cc3)c3c(F)ccc(F)c3OC[C@@H]12
Gamma-secretase [3]
  IC50: 8 nM
Gamma-secretase [4]
  IC50: 3 nM
Gamma-secretase [1]
  IC50: 5.5 nM

## CS(=O)(=O)CC[C@@H]1OCC[C@@]2(S(=O)(=O)c3ccc(C#N)c(C#N)c3)c3c(F)ccc(F)c3OC[C@@H]12
Gamma-secretase [3]
  IC50: 400 nM
Gamma-secretase [4]
  IC50: 120 nM
Gamma-secretase [1]
  IC50: 580 nM

## O=S(=O)(CC[C@@H]1OCC[C@@]2(S(=O)(=O)c3ccc(Cl)cc3)c3c(F)ccc(F)c3OC[C@@H]12)C1CC1
Gamma-secretase [1]
  IC50: 2.1 nM

## CS(=O)(=O)CC[C@@H]1OCC[C@@]2(S(=O)(=O)c3ccc(F)c(F)c3)c3c(F)ccc(F)c3OC[C@@H]12
Gamma-secretase [3]
  IC50: 14 nM
Gamma-secretase [4]
  IC50: 1.4 nM
Gamma-secretase [1]
  IC50: 31 nM

## O=S(=O)(CC[C@@H]1OCC[C@@]2(S(=O)(=O)c3ccc(Cl)cc3)c3c(F)ccc(F)c3OC[C@@H]12)CC(F)(F)F
Gamma-secretase [3]
  IC50: 22 nM
Gamma-secretase [4]
  IC50: 6.4 nM
Gamma-secretase [1]
  IC50: 7.3 nM

## O=S(=O)(CC[C@@H]1OCC[C@@]2(S(=O)(=O)c3ccc(Cl)cc3)c3c(F)ccc(F)c3OC[C@@H]12)c1cnn[nH]1
Gamma-secretase [3]
  IC50: 13 nM
Gamma-secretase [4]
  IC50: 4.7 nM
Gamma-secretase [1]
  IC50: 4.3 nM

## CS(=O)(=O)CC[C@@H]1OCC[C@@]2(S(=O)(=O)c3ccc(C(F)(F)F)cc3)c3c(F)ccc(F)c3OC[C@@H]12
[5]
  Tmax: 5.3 h
hERG (KCNH2)
  inhibition at 10 µM: 31%
[6]
  bioavailability: 70%
[7]
  AUC(0-inf): 46 µM·h
[8]
  half-life: 3.6 h
[9]
  bioavailability: 100%
[10]
  Vd: 6.6 L/kg
[11]
  half-life: 17 h
[12]
  Cmax: 680 nM
[13]
  Vd: 6.1 L/kg
[14]
  clearance: 40 mL/min/kg
[15]
  IC50: > 10000 nM
[16]
  Cmax: 810 nM
[17]
  bioavailability: 44%
[18]
  clearance: 4.6 mL/min/kg
Rattus norvegicus [19]
  ED50: 1.9 mg/kg
Gamma-secretase [3]
  IC50: 11 nM
Rattus norvegicus [20]
  ED50: 7.4 mg/kg
[21]
  Cmax: 1500 nM
Gamma-secretase [22]
  IC50: 31 nM
Gamma-secretase [4]
  IC50: 3.5 nM
[23]
  Tmax: 2 h
[24]
  AUC(0-inf): 18 µM·h
Rattus norvegicus [25]
  ED50: 2.8 mg/kg
[26]
  half-life: 17 h
[27]
  clearance: 6.5 mL/min/kg
Mus musculus [28]
  ED50: 7.7 mg/kg
Gamma-secretase [1]
  IC50: 15 nM
[29]
  AUC(0-inf): 3.5 µM·h
[30]
  Tmax: 2.3 h
[31]
  Vd: 8.9 L/kg
Mus musculus [32]
  ED50: 8 mg/kg

## CS(=O)(=O)CC[C@@H]1OCC[C@@]2(S(=O)(=O)c3ccc(OCC(F)(F)F)cc3)c3c(F)ccc(F)c3OC[C@@H]12
Gamma-secretase [1]
  IC50: 5100 nM

## CS(=O)(=O)CC[C@@H]1OCC[C@@]2(S(=O)(=O)c3ccc(Cl)cc3)c3c(F)ccc(F)c3OC[C@@H]12
Homo sapiens
  Selectivity ratio: 19
Gamma-secretase [3]
  IC50: 4 nM
Gamma-secretase [4]
  IC50: 1 nM
Gamma-secretase [1]
  IC50: 1.3 nM
